Measured values as given in patent US20090087845A1, “Genetic Markers Of True Low Birth Weight” (priority 2005, published 2009).
“And” between values parts separate entries of the source, which are not always exact repeats. Equal values may be shown once.

Tested on: placental gene expression
Experiment: Placental gene expression (Affymetrix Rat Genome Chip 230.2) after SSRI (fluoxetine) exposure throughout gestation
Type: in vivo
Protocol: Gene expression data from pregnant rats under different forms of dietary restriction was gathered. […] (N=8) • Group 2 (CR50): Rats Given 50% of their Normal Daily Intake of Food. (N=5) • Group 3 (CR70): Rats Given 70% of their Normal Daily Intake of Food. […] (N=6) Placentas from the rats of each Group were harvested on Day 21 of gestation. RNA was extracted and gene expression was measured based on hybridization of RNA to Affymetrix Rat Genome Chips™ (230.2) (Affymetrix, Santa Clara, Calif.).
In order to determine whether placental gene expression profiling can be used to identify other prenatal exposures such as toxicants and drugs, a group of rats with drug exposure was monitored as described above. […] As with control, CR50, CR70, and HF groups, placentas from the mothers were sampled after 21 days of gestation and gene expression monitored utilizing an Affymetrix Rat Genome Chip.

[1] = placenta, SSRI exposure during gestation, each SSRI column = one sample

CNCCC(Oc1ccc(C(F)(F)F)cc1)c1ccccc1 (centres unmarked) [fluoxetine, Fluoxetine]
Probeset 1391509_at expression (SSRI exposure during gestation): 8.436 and 8.44 and 8.929 and 8.687 and 8.508 and 8.574
Probeset 1391678_at expression (SSRI exposure during gestation): 7.246 and 7.316 and 7.365 and 7.475 and 7.387 and 7.426
Probeset 1391962_at expression (SSRI exposure during gestation): 3.906 and 3.859 and 3.835 and 3.838 and 3.857 and 3.918
Probeset 1392950_at expression (SSRI exposure during gestation): 3.887 and 3.884 and 3.809 and 3.812 and 3.82 and 3.885
Probeset 1393104_at expression (SSRI exposure during gestation): 5.976
Probeset 1393428_at expression (SSRI exposure during gestation): 6.023 and 6.1025 and 6.34 and 6.137 and 6.165 and 5.935
Probeset 1393438_at expression (SSRI exposure during gestation): 5.322 and 5.381 and 5.359 and 5.376 and 5.366 and 5.287
Probeset 1393539_at expression (SSRI exposure during gestation): 5.342 and 5.53 and 5.247 and 5.255 and 5.363 and 5.602
Probeset 1393939_at expression (SSRI exposure during gestation): 4.456 and 4.322 and 4.388 and 4.385 and 4.239 and 4.386
Probeset 1393989_at expression (SSRI exposure during gestation): 7.171 and 6.991 and 7.091 and 6.963 and 7.057 and 6.799
Probeset 1394343_s_at expression (SSRI exposure during gestation): 3.578 and 3.612 and 3.498 and 3.586 and 3.588 and 3.604
Probeset 1394383_at expression (SSRI exposure during gestation): 6.226 and 6.542 and 6.277 and 5.892 and 6.155 and 6.124
Probeset 1394790_at expression (SSRI exposure during gestation): 6.517 and 6.383 and 6.546 and 6.377 and 6.521 and 6.433
Probeset 1394887_x_at expression (SSRI exposure during gestation): 4.369 and 4.298 and 4.253 and 4.258 and 4.269 and 4.251
Probeset 1395316_at expression (SSRI exposure during gestation): 7.327 and 7.192 and 7.672 and 7.075 and 7.225 and 7.176
Probeset 1396130_at expression (SSRI exposure during gestation): 3.997 and 4.12 and 3.89 and 3.815 and 3.974 and 3.921
Probeset 1397268_at expression (SSRI exposure during gestation): 5.157 and 5.261 and 5.068 and 4.99 and 5.173 and 4.92
Probeset 1397587_at expression (SSRI exposure during gestation): 7.542 and 7.104 and 7.072 and 7.17 and 7.225 and 6.496
Probeset 1397676_at expression (SSRI exposure during gestation): 4.933 and 5.266 and 5.715 and 5.112 and 5.274 and 5.346
Probeset 1397934_at expression (SSRI exposure during gestation): 8.299 and 8.221 and 8.122 and 8.187 (2×) and 8.222
Probeset 1397956_at expression (SSRI exposure during gestation): 6.013 and 6.031 and 6.26 and 5.9 and 5.674 and 6.039
Probeset 1398025_at expression (SSRI exposure during gestation): 7.379 and 7.277 and 7.364 and 7.102 and 7.172 and 7.095
Probeset 1398136_at expression (SSRI exposure during gestation): 4.109 and 4.099 and 4.035 and 4.047 and 4.062 and 4.154
Probeset 1398208_s_at expression (SSRI exposure during gestation): 6.851 and 6.897 and 7.112 and 6.972 and 6.892 and 7.056
Probeset 1398486_at expression (SSRI exposure during gestation): 4.355 and 4.744 and 5.032 and 4.741 and 4.49 and 5.709
Probeset 1398949_at expression (SSRI exposure during gestation): 8.606 and 8.576 and 8.664 and 8.941 and 8.595 and 8.818
Probeset 1399108_at expression (SSRI exposure during gestation): 7.198 and 7.34 and 7.479 and 7.32 and 7.149 and 7.206
Probeset 1368198_at expression value [1]: 5.473 and 5.314 and 5.48 and 5.486
Probeset 1368824_at expression value [1]: 10.44 and 10.31 and 10.75 and 10.8577 and 10.39 and 10.8
Probeset 1369775_at expression value [1]: 9.454 and 9.493 and 9.497 and 9.711 and 9.436 and 9.608
Probeset 1370317_at expression value [1]: 8.582 and 8.538 and 9.288 and 9.274 and 9.399 and 9.017
Probeset 1370918_a_at expression value [1]: 11.48 and 11.57 and 11.99 and 11.82 and 11.71 and 11.77
Probeset 1371174_s_at expression value [1]: 5.805 and 5.865 and 5.868
Probeset 1373572_at expression value [1]: 8.281 and 8.071 and 8.726 and 8.553 and 8.626 and 8.452
Probeset 1373647_at expression value [1]: 8.537 and 8.662 and 9.067 and 8.963 and 8.812 and 8.988
Probeset 1375178_at expression value [1]: 5.304 and 5.523 and 5.583 and 5.437 and 5.444 and 5.62
Probeset 1376622_at expression value [1]: 8.516 and 8.814 and 8.398 and 8.068 and 8.494 and 8.379
Probeset 1376661_at expression value [1]: 8.407 and 8.641 and 7.86 and 7.94 and 7.632 and 8.114
Probeset 1377365_at expression value [1]: 5.846 and 5.083 and 5.532 and 6.127 and 5.643 and 5.687
Probeset 1378200_at expression value [1]: 3.755 and 3.651 and 3.848 and 3.847 and 4.036 and 3.882
Probeset 1378906_at expression value [1]: 3.9529 and 3.997 and 3.87 and 3.96 and 3.996 and 3.763
Probeset 1379691_at expression value [1]: 5.812 and 5.91 and 6.656 and 6.738 and 5.925 and 6.573
Probeset 1379822_at expression value [1]: 4.961 and 4.831 and 5.299 and 4.848 and 5.227 and 5.084
Probeset 1380175_at expression value [1]: 4.934 and 4.975 and 4.85 and 4.93 and 4.966 and 4.859
Probeset 1381456_at expression value [1]: 5.822 and 5.673 and 5.76 and 5.587 and 5.629 and 5.737
Probeset 1381492_at expression value [1]: 3.536 and 3.464 and 3.556 and 3.687 and 3.747 and 3.65
Probeset 1382156_at expression value [1]: 4.178 and 4.6 and 4.28 and 4.232 and 4.706 and 4.384
Probeset 1382670_at expression value [1]: 8.21 and 8.049 and 7.137 and 7.314 and 7.643 and 7.446
Probeset 1383054_at expression value [1]: 9.672 and 9.605 and 9.479 and 9.484 and 9.46 and 9.528
Probeset 1383329_at expression value [1]: 5.299 and 5.567 and 5.281 (2×) and 5.561 and 5.339
Probeset 1384137_at expression value [1]: 3.89 and 3.899
Probeset 1384367_at expression value [1]: 5.152 and 5.5769 and 5.098 and 5.103 and 5.137 and 5.449
Probeset 1384573_at expression value [1]: 9.396 and 9.335 and 9.669 and 9.82 and 10.3 and 9.808
Probeset 1385074_at expression value [1]: 6.094 and 5.703 and 6.069 and 5.946 and 6.214 and 6.404
Probeset 1385290_at expression value [1]: 5.664 (2×) and 5.339 and 5.511 and 5.599 and 5.438
Probeset 1385386_at expression value [1]: 4.05 and 4.2 and 4.368 and 4.404 and 4.111 and 4.351
Probeset 1385391_at expression value [1]: 5.218 and 4.757 and 4.618
Probeset 1385790_at expression value [1]: 8.262 and 8.645 and 8.217 and 8.093 and 8.254 and 8.458
Probeset 1387693_a_at expression value [1]: 4.775 and 5.713 and 5.222 and 5.079 and 4.944 and 5.129
Probeset 1387694_at expression value [1]: 5.039 and 4.874 and 4.919 and 4.933 and 5.073 and 4.691
Probeset 1387822_at expression value [1]: 5.838 and 6.319 and 5.874 and 5.79 and 5.5082 and 5.909
Probeset 1387836_at expression value [1]: 6.664 and 6.515 and 7.321 and 7.12 and 6.632 and 6.906
Probeset 1387914_at expression value [1]: 7.456 and 7.375 and 7.641 and 7.405 and 7.42 and 7.231
Probeset 1388131_at expression value [1]: 5.482 and 5.724 and 5.628 and 5.313 and 5.378 and 5.32
Probeset 1388363_at expression value [1]: 8.48 and 8.558 and 9.033 and 9.198 and 8.642 and 9.018
Probeset 1388669_at expression value [1]: 7.943 and 7.729 and 8.56 and 8.668 and 8.519 and 8.408
Probeset 1389213_at expression value [1]: 7.554 and 7.674 and 7.18 and 7.082 and 7.285 and 7.531
Probeset 1389599_at expression value [1]: 6.535 and 6.776 and 5.918 and 6.015 and 6.327 and 6.205
Probeset 1390406_at expression value [1]: 10.62 (2×) and 11.01 and 10.93 and 11.3 and 11.1
Probeset 1390477_at expression value [1]: 5.088 and 5.213 and 4.637 and 4.864 and 4.99 and 4.712
Probeset 1390592_at expression value [1]: 9.083 and 9.085 and 9.028 and 9.301
Probeset 1391283_at expression value [1]: 5.168 and 5.671 and 5.216 and 5.355 and 5.486 and 5.461
Probeset 1391509_at expression value [1]: 7.81 and 8.329 and 7.825 and 7.918 and 8.117 and 8.184
Probeset 1391678_at expression value [1]: 6.728 and 7.03 and 6.037 and 5.684 and 5.954 and 6.264
Probeset 1391962_at expression value [1]: 4.079 and 4.011 and 3.937 and 4.018 and 4.024 and 3.918
Probeset 1393428_at expression value [1]: 6.698 and 6.377 and 7.114 and 7.29 and 7.299 and 6.755
Probeset 1393438_at expression value [1]: 5.068 and 5.185 and 5.0534 and 5.206 and 4.959 and 5.153
Probeset 1394343_s_at expression value [1]: 3.666 and 3.629 and 3.872 and 3.785 and 3.852 and 3.841
Probeset 1394383_at expression value [1]: 5.713 and 6.062 and 5.324 and 5.199 and 5.6 and 5.247
Probeset 1394887_x_at expression value [1]: 4.063 and 4.143 and 3.656 and 3.536 and 3.475 and 3.919
Probeset 1395817_at expression value [1]: 6.714 and 6.49 and 6.649
Probeset 1396130_at expression value [1]: 3.756 and 3.764 and 3.744 and 3.847 and 3.746 and 3.741
Probeset 1397268_at expression value [1]: 4.565 and 5.072 and 4.482 and 4.73 and 4.645 and 4.567
Probeset 1397587_at expression value [1]: 6.561 and 6.659 and 6.326 and 6.196 and 6.181 and 6.179
Probeset 1397934_at expression value [1]: 8.072 and 8.118 and 7.76 and 7.912 and 7.673 and 7.856
Probeset 1398136_at expression value [1]: 4.139 and 4.205 and 4.178 and 4.175 and 4.278 and 4.212
Probeset 1398486_at expression value [1]: 5.62 and 5.739 and 6.477 and 7.05 and 7.673 and 6.597
Probeset 1398949_at expression value [1]: 9.031 and 8.874 and 9.095 and 9.297 and 9.003 and 9.17
expression, probeset 368199_at (placenta, SSRI-exposed samples): 8.586 and 8.944 and 9.045 and 9.265 and 9.277 and 9.377
expression, probeset 1367489_at (placenta, SSRI-exposed samples): 7.839 and 8.052 and 7.771 and 7.614 and 7.86 and 7.738
expression, probeset 1367856_at (placenta, SSRI-exposed samples): 9.745 and 9.797 and 10.22 and 10.51 and 10.38 and 10.14
expression, probeset 1367866_at (placenta, SSRI-exposed samples): 5.591 and 5.571
expression, probeset 1367877_at (placenta, SSRI-exposed samples): 9.4471 and 9.923 and 9.622 and 8.883 and 9.902 and 8.73
expression, probeset 1367978_at (placenta, SSRI-exposed samples): 5.914 and 6.324 and 5.574 and 5.778 and 5.944 and 5.842
expression, probeset 1368083_at (placenta, SSRI-exposed samples): 8.501 and 8.375 and 9.053 and 8.928 and 9.103 and 8.728
expression, probeset 1368397_at (placenta, SSRI-exposed samples): 3.806 and 3.897 and 3.87 and 3.843 and 3.78 and 3.762
expression, probeset 1368542_at (placenta, SSRI-exposed samples): 6.355 and 7.586 and 6.712 and 6.347 and 6.563 and 7.001
expression, probeset 1368646_at (placenta, SSRI-exposed samples): 5.644 and 5.882 and 5.515 and 5.483 and 5.352 and 5.292
